This note sets out measurements from paper PMC12560828, “Chemical structure drives developmental toxicity of alkyl-substituted naphthalenes in zebrafish” (Environment international, 2025).

For series [1], the system named is early life stage zebrafish (Danio rerio) embryos. Description: Developmental toxicity morphology screen, sealed rotating vial exposure. Type of series: in vivo. More on the design: bmd, MO24 / bmd, MORT / bmd, ANY_ / bmd, AXIS / bmd, CRAN / bmd, EDEM / bmd, LTRK / bmd, MUSC / bmdL, ANY_ / bmdU, ANY_ / bmdL, AXIS / bmdU, AXIS / bmdL, CRAN / bmdU, CRAN / bmdL, EDEM / bmdU, EDEM / bmdL, LTRK / bmdU, LTRK / bmdL, MO24 / bmdU, MO24 / bmdL, MORT / bmdU, MORT: unit not given here. As to the method: (§1) When embryos were 6 hpf they were bleached in groups of 1000 or less to limit bacterial growth in sealed vials. Embryos were placed in a strainer for transfer between solutions in 500 mL containers. […] Pools of eight embryos were placed into 2 mL clear glass screw cap exposure vials with polyvinyl-faced pulp liner (Avantar Radnor, PA, United States) using a glass Pasteur pipette. Excess EM was removed, and 2 mL of fresh EM was immediately added. A total of 10 uL of 200x working stock (in DMSO) was added to each vial, then immediately capped and inverted three times to mix. […] Vials were loaded into a custom 3D printed vial holder for slow end-over-end rotation in a dark 28 °C incubator overnight. […] At 24 hpf, embryos were removed from exposure vials and singulated into 96-well plates loaded with 100 μL chemical-free EM. Each exposure vial group was maintained in plate columns. After loading into 96-well plates, embryos were assessed for 24-hour mortality. For the remainder of the exposure, plates were kept stationary at 28 °C in the dark, until 120 hpf when morphology screening and the larval photo motor response (LPR) assay were conducted, section 2.3.2 and section 2.3.3, respectively.
Each treatment group was replicated over four vials, resulting in 32 embryos per treatment, split over two replicate 96-well plates per chemical. […] All reported concentrations were nominal water concentrations and are included in SI-T4.
At 24 hpf embryos were assessed for mortality (MO24). At 120 hpf embryos were assessed for abnormality in […] morphological endpoints: mortality (MORT), edemas (EDEM), bent axis (AXIS), touch response (TCHR), craniofacial (CRAN), muscular/cardiovascular (MUSC), lower trunk (LRTK), brain (BRAN), skin (SKIN), and notochord malformations (NC). Morphological assessments were made by a team of three to four individuals. The team was blinded to the identity, plate layout, and concentrations of the chemicals, thereby minimizing bias in morphological screening assessment. To ensure the assessments were consistent, concentration–response reproducibility of a parathion ethyl quality control plate was performed along with each experimental exposure set up. Details of all measured endpoints can be found at Developmental toxicity zebrafish phenotype atlas. […] Each endpoint was scored as a binary presence/absence and scores were compiled into an “Any effect” endpoint, the presence of abnormality in any individual endpoint.
The Any effect percent was used to calculate the BMC50, 50 % change relative to the background for each endpoint and chemical. All values were reported as the nominal exposure concentration.

In series [2] the test system is zebrafish larvae, 120 hpf. Kind of series: Larval photomotor response (LPR) assay after vial exposure. Type of series: in vivo, Danio rerio. The following applies: LPR. The method, then: as §1
Each treatment group was replicated over four vials, resulting in 32 embryos per treatment, split over two replicate 96-well plates per chemical. […] Vial groups of plated larvae were tracked to assess the impact of the vial on the results. All reported concentrations were nominal water concentrations and are included in SI-T4.
The LPR assay was conducted at 120 hpf. […] Larval movement was tracked throughout minutes 6–24. Animals dead or morphologically abnormal were excluded from the analysis, and if more than 30 % of the wells in a treatment group were excluded, the treatment was removed.
Movement values were binned into 6s intervals, log normalized and used to calculate area under the curve (AUC). AUC values from the first cycle after calibration were used to calculate the LEL for each period (light and dark).

Where [3] appears, read: Fig. 2 heatmap; nominal concentration, exposure 6-24 hpf in vials, summary of all endpoints.
The mark [4] stands for this setting: endpoint MORT; lower limit of benchmark dose.
The mark [5] stands for this setting: endpoint MORT; upper limit of benchmark dose.
[6] abbreviates: morphology endpoint EDEM; benchmark dose.
[7] abbreviates: morphology endpoint EDEM; lower limit of benchmark dose.
The mark [8] stands for this setting: morphology endpoint EDEM; upper limit of benchmark dose.
[9] abbreviates: period dark, round 1, conc 3.125.
Setting [10] is: period dark, round 1, conc 6.25.
The mark [11] stands for this setting: period dark, round 1, conc 12.5.
The mark [12] stands for this setting: period light, round 1, conc 3.125.
Setting [13] is: period light, round 1, conc 6.25.
Where [14] appears, read: period light, round 1, conc 12.5.
Where [15] appears, read: benchmark dose; morphology endpoint ANY_ (any effect).

In the case of `CCCCc1ccc2ccccc2c1` [2-butylnaphthalene], in series [1] (Fig. 2; nominal concentration), the “BMC50 AXIS (curved or bent body axis at 120 hpf)” value worked out at 31.7 µM, the “BMC50 CRAN (craniofacial malformation at 120 hpf)” value is 32.3 µM, the “BMC50 EDEM (pericardial and/or yolk sac edema at 120 hpf)” value was determined as 37.1 µM and the “BMC50 LTRK (lower trunk and/or caudal fin at 120 hpf)” value was found to be 32.6 µM. In addition, in series [1] (Fig. 2; nominal concentration), the “BMC50 MO24 (mortality at 24 hpf)” value stood at 45.9 µM and the “BMC50 MORT (mortality at 120 hpf)” value was found to be 29.2 µM. Moreover, the “BMC50 Any effect” value in series [1] (setting [3]) came to 13.8 µM. Besides, the “any effect BMD50” value in series [1] (SI-T5) turned out to be 13.76 µM. Also, in series [1] (endpoint MO24; benchmark dose), the “bmd, MO24” value is given as 45.9226. Further, the “bmdL, MO24” value in series [1] (endpoint MO24; lower limit of benchmark dose) is listed as 34.5575. Moreover, in series [1] (endpoint MO24; upper limit of benchmark dose), the “bmdU, MO24” value is 71.8256. For the same compound, the “bmd, MORT” value in series [1] (endpoint MORT; benchmark dose) is 29.2083. The “bmdL, MORT” value in series [1] (setting [4]) came to 24.1073. For the same compound, in series [1] (setting [5]), the “bmdU, MORT” value is listed as 36.5916. Further, the “bmd, ANY_” value in series [1] (morphology endpoint ANY_; benchmark dose) amounted to 13.7563. Further, the “bmdL, ANY_” value in series [1] (morphology endpoint ANY_; lower limit of benchmark dose) is given as 11.3562. The “bmdU, ANY_” value in series [1] (morphology endpoint ANY_; upper limit of benchmark dose) came to 16.7056. For the same compound, the “bmd, AXIS” value in series [1] (morphology endpoint AXIS; benchmark dose) came out at 31.7332. In series [1] (morphology endpoint AXIS; lower limit of benchmark dose), the “bmdL, AXIS” value was determined as 20.8074. Further, the “bmdU, AXIS” value in series [1] (morphology endpoint AXIS; upper limit of benchmark dose) is 68.8189. Moreover, the “bmd, CRAN” value in series [1] (morphology endpoint CRAN; benchmark dose) came to 32.2639. For the same compound, in series [1] (morphology endpoint CRAN; lower limit of benchmark dose), the “bmdL, CRAN” value is recorded as 21.7357. In series [1] (morphology endpoint CRAN; upper limit of benchmark dose), the “bmdU, CRAN” value is recorded as 64.257. Further, the “bmd, EDEM” value in series [1] (setting [6]) worked out at 37.0933. The “bmdL, EDEM” value in series [1] (setting [7]) turned out to be 25.0511. Also, in series [1] (setting [8]), the “bmdU, EDEM” value worked out at 73.9212. The “bmd, LTRK” value in series [1] (morphology endpoint LTRK; benchmark dose) amounted to 32.6419. In addition, in series [1] (morphology endpoint LTRK; lower limit of benchmark dose), the “bmdL, LTRK” value was determined as 22.6339. The “bmdU, LTRK” value in series [1] (morphology endpoint LTRK; upper limit of benchmark dose) was 59.8583. The fold_change in series [2] (setting [9]) was -0.7788. The fold_change in series [2] (setting [10]) was -1.395. Besides, the fold_change in series [2] (setting [11]) is given as -2.279. Moreover, the fold_change in series [2] (setting [12]) was found to be 0.2651. In series [2] (setting [13]), the fold_change is -0.6707. Further, the fold_change in series [2] (setting [14]) amounted to 0.432.

Turning to `CC(C)(C)c1ccc2ccc(C(C)(C)C)cc2c1` [2,7-di-tert-butylnaphthalene], the “BMC50 EDEM (pericardial and/or yolk sac edema at 120 hpf)” value in series [1] (Fig. 2; nominal concentration) was 33.6 µM. Further, the “BMC50 MO24 (mortality at 24 hpf)” value in series [1] (Fig. 2; nominal concentration) is “no MO24 BMC50”. For the same compound, the “BMC50 MORT (mortality at 120 hpf)” value in series [1] (Fig. 2; nominal concentration) was determined as 41.3 µM. Moreover, in series [1] (setting [3]), the “BMC50 Any effect” value was 24.7 µM. Also, in series [1] (SI-T5), the “any effect BMD50” value worked out at 24.66 µM. Also, in series [1] (setting [15]), the “bmd, ANY_” value came out at 24.6598. Also, the “bmd, MORT” value in series [1] (endpoint MORT; benchmark dose) is given as 41.3049. The “bmdL, MORT” value in series [1] (setting [4]) was 34.7649. In series [1] (setting [5]), the “bmdU, MORT” value was determined as 51.9197. The “bmd, EDEM” value in series [1] (setting [6]) was found to be 33.6463. For the same compound, the “bmdL, EDEM” value in series [1] (setting [7]) is reported as 26.4386. In addition, in series [1] (setting [8]), the “bmdU, EDEM” value is listed as 67.8341. Further, the fold_change in series [2] (setting [9]) is on record as -0.2175; in series [2] (setting [10]) it was -0.4542; in series [2] (setting [11]), -0.5803; in series [2] (period dark, round 1, conc 25), -1.44; in series [2] (setting [12]), 0.7527; in series [2] (setting [13]), 0.7301. Further, the fold_change in series [2] (setting [14]) turned out to be 0.5841; in series [2] (period light, round 1, conc 25), 0.3464.

As for `CCc1ccc2cc(CC)ccc2c1` [2,6-diethylnaphthalene], the “BMC50 AXIS (curved or bent body axis at 120 hpf)” value in series [1] (Fig. 2; nominal concentration) was 46.9 µM. Further, the “BMC50 MO24 (mortality at 24 hpf)” value in series [1] (Fig. 2; nominal concentration) stood at 38.1 µM. Besides, the “BMC50 MORT (mortality at 120 hpf)” value in series [1] (Fig. 2; nominal concentration) stood at 39.2 µM. Also, the “BMC50 Any effect” value in series [1] (setting [3]) is 18.8 µM. For the same compound, the “any effect BMD50” value in series [1] (SI-T5) came to 18.77 µM. Besides, the “bmd, MO24” value in series [1] (benchmark dose; endpoint MO24) is on record as 38.0576. The “bmd, MORT” value in series [1] (benchmark dose; endpoint MORT) is 39.1942. In series [1] (setting [15]), the “bmd, ANY_” value is on record as 18.7673. In series [1] (benchmark dose; morphology endpoint AXIS), the “bmd, AXIS” value is reported as 46.8649. For the same compound, the fold_change in series [2] (setting [9]) is listed as 0.178; in series [2] (setting [10]), -0.04909; in series [2] (setting [11]), -0.5724; in series [2] (period dark, round 1, conc 25) it was -0.5473; in series [2] (setting [12]), -0.07519; in series [2] (setting [13]), 0.5876. The fold_change in series [2] (setting [14]) stood at 0.2476; in series [2] (period light, round 1, conc 25) it was 0.1223.
